# Source: US9475783B2, “Antimicrobial agents” (Rutgers, the State University of New Jersey, priority 2012, dated 2016)
# System: MSSA
# Assay: Test A antibacterial assay, broth microdilution MIC
# Type: cell-based
# Settings: Staphylococcus aureus, growth read after 24 to 48 hours at OD 600 nm
# Method: Test A. Antibacterial Assay. Antibacterial activity can be determined as per Clinical and Laboratory Standards Institute (CLSI) guidelines using a broth microdilution assay in which log-phase bacteria are grown at 37° C. in appropriate medium containing two-fold serial dilutions of a compound to yield final concentrations ranging from 256 to 0.06 μg/mL. For determination of minimal inhibitory concentration (MIC) values, bacterial growth is monitored after 24 to 48 hours by measuring optical density at 600 nm.
row,SMILES,MIC [µg/mL]
1,CCN(CC)CNC(=O)c1c(F)ccc(OCc2nc3cc(Cl)cnc3s2)c1F [Example 16],0.5
2,CN1CCN(CNC(=O)c2c(F)ccc(OCc3nc4cc(Cl)cnc4s3)c2F)CC1 [Example 8],2
3,CN(C)CNC(=O)c1c(F)ccc(OCc2nc3cc(Cl)cnc3s2)c1F [Example 6],0.25
4,Cc1ccc(CN(C)CNC(=O)c2c(F)ccc(OC(C)c3nc(C)c(-c4ccc(C(C)(C)C)cc4)s3)c2F)cc1 (centres unmarked) [Example 20],1
5,CCN(CC)CNC(=O)c1c(F)ccc(OCc2nc(-c3ccc(C(F)(F)F)cc3)c(Br)o2)c1F [Example 22],0.125
6,CCN(CC)CNC(=O)c1c(F)ccc(OCc2nc3cc(Cl)ccc3o2)c1F [Example 24],8
7,CN(C)/C=N/C(=O)c1c(F)ccc(OCc2nc3cc(Cl)cnc3s2)c1F [Example 5],0.25
8,Cc1nc(COc2ccc(F)c(C(=O)NCN(C)C)c2F)sc1-c1ccc(C(C)(C)C)cc1 [Example 34],0.125
9,CN1CCN(C(NC(=O)c2c(F)ccc(OCc3nc4cc(Cl)cnc4s3)c2F)c2ccccc2)CC1 (centres unmarked) [Example 32],0.5
10,Cc1ccc(CN(C)CNC(=O)c2c(F)ccc(OCc3nc(-c4ccc(C(F)(F)F)cc4)c(Br)o3)c2F)cc1 [Example 23],0.25

# The remaining lines, values ahead:
row,MIC [µg/mL],SMILES
1,16,Cc1ccc(CN(C)CNC(=O)c2c(F)ccc(OCc3nc4cc(Cl)ccc4o3)c2F)cc1 [Example 25]
2,0.5,O=C(NC(c1cccc(Br)c1)N1CCOCC1)c1c(F)ccc(OCc2nc3cc(Cl)ccc3s2)c1F (centres unmarked) [Example 30]
3,0.25,CC1CCN(CNC(=O)c2c(F)ccc(OCc3nc4cc(Cl)ccc4s3)c2F)CC1 [Example 18]
4,1,O=C(NC(c1ccccc1)N1CCOCC1)c1c(F)ccc(OCc2nc3cc(Cl)cnc3s2)c1F (centres unmarked) [Example 29]
5,0.125,CN(C)CNC(=O)c1c(F)ccc(OCc2nc3cc(Cl)ccc3s2)c1F [Example 4]
6,2,C/C(=N\C(=O)c1c(F)ccc(OCc2nc3cc(Cl)ccc3s2)c1F)N(C)C [Example 44]
7,0.25,C#CCN(C)CNC(=O)c1c(F)ccc(OCc2nc3cc(Cl)ccc3s2)c1F [Example 39]
8,0.5,O=C(NCNCc1ccccc1)c1c(F)ccc(OCc2nc3cc(Cl)ccc3s2)c1F [Example 41]
9,0.125,CNCNC(=O)c1c(F)ccc(OCc2nc3cc(Cl)ccc3s2)c1F [Example 27]
10,0.5,CC(C)(C)NCNC(=O)c1c(F)ccc(OCc2nc3cc(Cl)ccc3s2)c1F [Example 40]
11,8,CN1CCN(C(NC(=O)c2c(F)ccc(OCc3nc4cc(Cl)ccc4s3)c2F)c2ccccc2)CC1 (centres unmarked) [Example 38]
12,1,COc1ccc(CN(C)CNC(=O)c2c(F)ccc(OCc3nc4cc(Cl)cnc4s3)c2F)cc1 [Example 11]

# System: not listed separately
# Assay: Test D formulation of test compounds (solubility in vehicles)
# Type: physicochemical
# Settings: 10 mM citrate alone
# Method: Test D. Formulation of Test Compounds.
# The literature vehicle reported for formulation of 5-chloro-2-(2,4-difluoro-3-aminocarbonylphenoxy)methylpyridylthiazole for i.v. administration consists of 20% DMA, 40% polyethylene glycol and 40% saline. […] Mice that were treated 15 minutes later with a second injection consisting of 150 μl of this vehicle died. In addition, concentrations of 5-chloro-2-(2,4-difluoro-3-aminocarbonylphenoxy)methylpyridylthiazole at or above 2.2 mg/ml in this vehicle were not completely dissolved and existed as a suspension (in a 28 g mouse this would be 15.7 mg/kg). A number of other formulations with 5-chloro-2-(2,4-difluoro-3-aminocarbonylphenoxy)methyl […] were tried, such as 20% DMA, 40% proplyeneglycol in 8% Cremophor-EL. […] Because of the limited solubility and the absence of a suitable vehicle, the literature study where it was reported that a 30 mg/kg dose of 5-chloro-2-(2,4-difluoro-3-aminocarbonylphenoxy)methylpyridylthiazole was delivered to mice in a single injection could not be repeated. […] In some instances the addition of 10-30% propylene glycocol did allow for greater retention of solubility of the test compounds. Example 4 was also found to formulate well at a 2.0 mg/ml concentration in 10 mM malic acid with 20% propylene glycol and with 10 mM p-toluenesulphonate alone. Example 6 did formulate well in 10 mM citrate alone at a concentration of 2.0 mg/ml. […] The ability of mice to tolerate this vehicle did allow for multiple dosing in the assessment of Example 6 in vivo and to actually deliver higher doses of the Example 6 because of the compatibility of a predominately aqueous vehicle.
row,SMILES,concentration formulated well [µg/mL]
1,CN(C)CNC(=O)c1c(F)ccc(OCc2nc3cc(Cl)cnc3s2)c1F [Example 6],2000

# Same assay, conditions: 10 mM malic acid with 20% propylene glycol
row,concentration formulated well [µg/mL],SMILES
1,2000,CN(C)CNC(=O)c1c(F)ccc(OCc2nc3cc(Cl)ccc3s2)c1F [Example 4]

# Same assay, conditions: 10 mM p-toluenesulphonate alone
row,concentration formulated well [µg/mL],SMILES
1,2000,CN(C)CNC(=O)c1c(F)ccc(OCc2nc3cc(Cl)ccc3s2)c1F [Example 4]

# Same assay, conditions: 10 mM solutions of citrate, methane sulfonate, p-toluene sulphonate, phosphoric acid, and tartaric acid
row,SMILES,concentration readily formulated [µg/mL]
1,CN(C)CNC(=O)c1c(F)ccc(OCc2nc3cc(Cl)cnc3s2)c1F [Example 6],2000
2,CN(C)CNC(=O)c1c(F)ccc(OCc2nc3cc(Cl)ccc3s2)c1F [Example 4],2000

# System: MSSA (S. aureus)
# Assay: Test E in vivo efficacy, murine septicemia model of staphylococcal infection
# Settings: MSSA-infected mice, i.v. tail vein, four doses at 15 minute interval in 10 mM citrate; 24 h monitoring
# Method: Test E. In Vivo Efficacy in the Mouse Peritonitis or Mouse Septicemia Model.
# Assessment of in vivo efficacy was performed using femal Swiss Webster mice (obtained from Taconic Farms, Germantown, Pa.) employing a murine septicemia model of staphylococcal infection. For bioassays examining efficacy against MSSA, each mouse was inoculated intraperitoneally with 500 μl of an inoculum containing 1.0×10^8 CFU per ml of S. aureus. All of the in vivo efficacy studies include a negative control group of infected mice treated intravenously either with vehicle alone (6 mice) or untreated (6 mice), as well as a positive control groups of infected mice treated with 200 ul of […] of vancomycin administered intravenously (4 mice) and a second control group using 2.0 mg/ml of oxacillin (4 mice). After the mice were infected, groups of six mice are treated by tail vein injection with 300 ul of a solution containing 2.0 mg of Example 6 in 10 mM citrate. Mice received four doses Example 6 administered with a 15 minute interval. Control mice are treated with vancomycin qd, oxacillin b.i.d, or vehicle alone. […] Animals are given food and water ad libitum. Survival within each experimental group is monitored over a 24 hout time period. Monitoring of the mice began 4 hours after the start of experiment. All of the effective mice treated with Example 6 survived the infection (5/5, 100% survival). All of the oxacillin-treated (4/4) and vancomycin-treated mice (4/4) survived the infection. All of the vehicle controls died within 12 hours, with 0/6 or 0% survival. Among the infected mice that receive no treatment, only 1/6 survived (16.7% survival).
row,SMILES,survival [%]
1,CN(C)CNC(=O)c1c(F)ccc(OCc2nc3cc(Cl)cnc3s2)c1F [Example 6],100

# Same assay, conditions: MSSA-infected mice, i.v. treatment; 24 h monitoring
row,SMILES,mice surviving the infection / mice
1,CN(C)CNC(=O)c1c(F)ccc(OCc2nc3cc(Cl)cnc3s2)c1F [Example 6],5/5

# Same assay, conditions: group of six mice, 300 ul i.v. of 2.0 mg solution in 10 mM citrate, four doses
row,SMILES,death during the course of treatment
1,CN(C)CNC(=O)c1c(F)ccc(OCc2nc3cc(Cl)cnc3s2)c1F [Example 6],One of the mice treated with Example 6 died during the course of treatment

# System: Bacillus subtilis FG347 bacteria
# Assay: Test C FtsZ Z-ring assay (GFP-ZapA fluorescence microscopy)
# Type: cell-based
# Settings: compound at 3 μg/mL
# Method: Test C. FtsZ Z-Ring Assay.
# The impact of a compound on FtsZ Z-ring formation can be determined using a strain of Bacillus subtilis (FG347) that expresses a green fluorescent protein (GFP)-ZapA fusion protein upon induction with xylose. ZapA is known to associate with FtsZ Z-rings in B. subtilis and, thus, serves as a marker for Z-ring formation. In this assay, log-phase FG347 bacteria are treated with differing concentrations of compound for time periods ranging from 1 to 6 hours. At each time point, aliquots are taken from each culture and then viewed with a fluorescence microscope.
# Examples 4 and 6-8 were evaluated for their impact on the polymerization of Staphylococcus aureus FtsZ. […] In addition, Example 5 and 7 were also examined for their impact on FtsZ Z-ring formation in Bacillus subtilis FG347 bacteria. […] These collective results highlight the compounds of the invention as FtsZ-targeting antibacterial agents.
SMILES,bacterial morphology induced,impact on FtsZ Z-ring formation
CN(C)/C=N/C(=O)c1c(F)ccc(OCc2nc3cc(Cl)cnc3s2)c1F [Example 5],"elongated, filamentous morphology",inhibit FtsZ Z-ring formation
